Data on 2 molecules can be found in ChEMBL document CHEMBL1152822, “Genetic analysis of the dihydrofolate reductase-thymidylate synthase gene from geographically diverse isolates of Plasmodium malariae” (Antimicrob Agents Chemother, 2007).

Converted amounts (≈) assume the structure as drawn.

Format in all cases: functional, organism-based
One experiment deals with Plasmodium vivax. In words: Antiplasmodial activity against Plasmodium vivax.
A further experiment deals with Plasmodium malariae. Put plainly: Antimalarial activity as inhibition of schizont maturation against Plasmodium malariae Thai after 40 - 70 hrs.
The next experiment concerns Plasmodium falciparum. In words: Antiplasmodial activity against Plasmodium falciparum.

`CCN(CC)CCCC(C)Nc1ccnc2cc(Cl)ccc12.Cl` (stereo not given): the half-maximal inhibitory concentration (IC50) (as a rule, the point on the concentration scale where inhibition reaches its midpoint) in the experiment with Plasmodium vivax is 0.05 µg/mL; in the experiment on Plasmodium malariae, 0.0749 µg/mL.

For `CCc1nc(N)nc(N)c1-c1ccc(Cl)cc1` [PYRIMETHAMINE], the IC50 came out at 4.08 µg/mL (≈ 16.4 µM) with Plasmodium falciparum, 0.008 µg/mL (≈ 0.0322 µM) in the experiment with Plasmodium vivax and 0.00224 µg/mL (≈ 0.00901 µM) with Plasmodium malariae.
